Results reported in US20120283302A1, “SCCA-1 PRODUCTION INHIBITOR HAVING A CARBOXAMIDE DERIVATIVE AND/OR A SALT THEREOF AS AN ACTIVE INGREDIENT” (SHISEIDO COMPANY, LTD, priority 2009, published 2012).

What was measured:
Human SCCA1 = assay: SCCA-1 expression-inhibiting effect in cultured human keratinocytes (quantitative PCR, G3PDH internal standard); assay type: cell-based; settings: 24 hours after addition at different concentrations, vs no-drug negative control, FIG. 1-3
Procedure: SCCA-1 expression-inhibiting effects of carboxyamide derivatives in cell line:
Human keratinocytes were cultured, and carboxyamide derivatives at different concentrations were added at 60-70% confluency. The carboxyamide derivatives used were the following:
After 24 hours, the RNA was obtained, and then it was subjected to a quantitative PCR analysis by ABI PRISM 7900HT Sequence Detector System (Taqman PE) (Applied Biosystems) with using a primer/probe combination shown below, thereby the amount of SCCA gene expression was measured (using G3PDH as the internal standard). • Human SCCA1 • Forward primer: 5′-GTGCTATCTGGAGTCCT-3′ (SEQ ID NO: 1) • Reverse primer: 5′-CTGTTGTTGCCAGCAA-3′ (SEQ ID NO: 2) • Probe: 5′-CATCACCTACTTCAACT-3′ (SEQ ID NO: 3) • Human G3PDH • Forward primer: 5′-GAAGGTGAAGGTCGGAGTC-3′ (SEQ ID NO: 4) • Reverse primer: 5′-[…]-3′ (SEQ ID NO: 5) • Probe: 5′-[…]-3′ (SEQ ID NO: 6)

SCAA-1 = settings: known from Japanese Patent Application No. 2008-903571; cited from earlier work
SCAA-2 = settings: known from Japanese Patent Application No. 2008-903571; cited from earlier work

Structure (SMILES) | SCCA-1 gene expression (Human SCCA1) | gene expression-inhibiting effect on SCAA-1 (SCAA-1) | gene expression-inhibiting effect on SCAA-2 (SCAA-2)
O=C1NCCN1CCO [1-(2-hydroxyethyl)-2-imidazolidinone] | significant dose-dependent reduction in SCCA-1 gene expression |  | 
O=C1CCCN1CCO [1-(2-hydroxyethyl)-2-pyrrolidone] | significant dose-dependent reduction in SCCA-1 gene expression |  | 
O=C(O)CCN1CCCCC1 [1-piperidinepropionic acid (1-PP), 1-piperidinepropionic acid] |  | gene expression-inhibiting effect | gene expression-inhibiting effect
NC(=O)NC1NC(=O)NC1=O (stereo not shown) [allantoin] | significant dose-dependent reduction in SCCA-1 gene expression |  | 
O=C1NCCN1 [ethyleneurea] | significant dose-dependent reduction in SCCA-1 gene expression |  | 
NC(N)=O [urea] | significant dose-dependent reduction in SCCA-1 gene expression |  | 
